Values joined by “and” are separate entries in the source; they are usually repeats but may differ in a detail not shown here. Identical values can stand only once. Like-named read-outs stand apart in the source and are kept apart here.
Assays:
[1] = In vitro transdermal permeation, diffusion cell, hairless mouse skin; type: in vitro ADME, hairless mice
Source text: The abdominal skin from male hairless mice (mice of the HRS strain carrying a mutant Hr gene (hr/hr)) aged 6-8 weeks was cleaned of any subcutaneous fat with blood vessels while maintaining the integrity of the viable epidermis and SC. The excised skin was used immediately after preparation and was not stored prior to use.
(§1) A custom made finite dosing diffusion cell (AGB Scientific, Dublin, Ireland, FIG. 1) based upon and modified from the Keshary-Chien type diffusion cell was used for in vitro permeation studies.
(§2) Three to five diffusion cells were used in each permeation experiment and monitoring was performed over a 48 hour period. The cells were linked in series to a thermostatically controlled circulation bath set at 35° C. to mimic human skin surface temperature. Each cell was placed on a stir-plate set at a defined stirring rate of 1,000 rpm. The surface area for permeation provided by each cell was 3.14 cm^2.
(§3) Data collected from each permeation study included:
(§4) 1) the average maximum flux obtained in 48 hours (Jmax),
(§5) 2) the total absorption characterized as the total weight of peptide delivered transdermally into the receiver compartment over a 48 hour period,
(§6) 3) the lag time to detectable flux which was equivalent to the latest sampling time at which no peptide was detectable by HPLC analysis of the receiver solution, and
(§7) 4) an equivalent 48-hour steady state flux was determined by obtaining the slope of the best-fit line for a plot of cumulative flux per unit area versus time (described by McDaid, D. M. et al., Int. J. Pharm., 133:71-83, 1996).
(§8) Fresh hairless mouse skin samples or fresh or freshly thawed pig skin samples were mounted onto the diffusion cell with the SC topmost and in contact with the donor system. A rubber or plastic ring was placed on top of the skin sample to secure it in position. The combination of the diffusion cell top, the skin and the rubber ring was securely fastened together by means of a threaded cap. A recorded volume of receiver solution was added to the receiver compartment and maintained at 35° C. The receiver solution was 60/40 (v/v) PBS/propylene glycol (pH 7.1). The propylene glycol fraction was used to increase the solubility of the somatostatin-fatty acid salts. Previous work reported by Morgan et al. (J. Pharm. Sci., 87:1213-1218, 1998) has shown that a 50/50 water/propylene glycol receptor solution had no detrimental effect on the barrier integrity of both hairless mouse and porcine skin.
The receiver solution was allowed to equilibrate at 35° C. for 30 minutes. […] A narrow-bore hypodermic needle was used to withdraw 1 ml samples from the receiver compartment via the sampling port; at each sampling time, an equal volume of drug-free receiver solution was immediately added back to the receiver compartment. Samples were analyzed by HPLC.
HPLC determination of peptide content in the receiver solution along with the known surface area of skin used (3.14 cm^2) allowed for calculation of transdermal flux (in units of μg/cm^2/hr) for each time point. Panels 1 and 2 of FIG. 2 show flux […] profiles for the myristate, octanoate, decanoate, linoleate, nonanote, acetate and laurate […]
Once lead candidate somatostatin-fatty acid salts had been selected on the basis of in vitro permeation in a DMSO solution, the effect of different solvents and penetration enhancers on permeation was assessed. The concentration of the donor solution corresponded to 5 mg/ml free base peptide for all experiments and all donor solutions were equilibrated at 37° C. for one hour prior to use. These experiments were carried out using hairless mouse skin and pigskin barriers.

[2] = Peptide content in upper and lower skin layers after permeation (tape stripping); type: in vitro ADME, hairless mice; details: percentage of total applied dose, hairless mouse skin
Protocol: The quantity of peptide present in the upper SC and lower dermis layers of the hairless mouse skin samples were determined for each concentration of analog tested. To determine analog concentrations in the SC, the skin samples were wiped clean of donor solution, patted dry and stripped twenty times with Sellotape®, using a fresh piece for each stripping. The twenty pieces of Sellotape® were pooled in a 50 ml centrifuge tube and 10 ml of 50/50 (v/v) acetonitrile/0.1M TFA was added. The sample was homogenized at 20,000 rpm for 5 minutes and then filtered. The peptide content was determined using HPLC. To determine peptide content in the dermal layer, the remaining skin sample was cut into fine pieces, homogenized and analyzed as described.

[3] = Solubility of somatostatin fatty-acid salts; type: physicochemical; details: 24 hours
Protocol: The solubilities of Compound A and Compound B oleate were determined in deionized water, phosphate-buffered saline (PBS; pH 7.4) and n-octanol. Analysis was carried out by placing an excess of each salt with 1 ml of the selected solvent into four 4 ml sealed HPLC vials. The samples were allowed to equilibrate at 37° C. for 24 hours with shaking. Each of the four dispersions was then filtered through a 0.2 μm nylon membrane (Pall Gelman, Ann Arbor, Mich., U.S.A.). Prior to HPLC analysis, the n-octanol samples were diluted 1:100 with methanol and the PBS and deionized water samples were diluted 1:10 in de-ionized water. Table 7 lists the solubilities of Compound A and Compound B oleate salts in deionized water, PBS and n-octanol.

[4] = In vitro transdermal permeation, diffusion cell, pig epidermis; type: in vitro ADME, domestic pigs; details: pig epidermis; donor 55% EtOH 40% Water 5% Cineole, 5 mg/ml free base peptide
Protocol: The viable epidermal layer was removed from the flanks of freshly sacrificed four month-old female domestic pigs. The flank area of each animal was carefully shaved and the upper 200 μm of skin (Meyer, W., et al., Curr. Prob. Dermatol., 7: 39-52, 1978; de Jalón, et al., J. Control. Rel., 75:191-197, 2001) was harvested using an electric dermatome (Robbins Instruments, Chatham, N.J., U.S.A.). Pigskin epidermal specimens were frozen at −18° C. between layers of PBS-soaked tissue paper enclosed in aluminum foil for up to two weeks prior to use in in vitro permeation studies.
as §1, §2, §3, §4, §5, §6, §7, §8
The receiver solution was allowed to equilibrate at 35° C. for 30 minutes. The experiment was initiated by the application of 1 ml of donor solution containing approximately 5 mg free base peptide in DMSO to the skin surface followed by sealing of the donor compartment with Parafilm®. A narrow-bore hypodermic needle was used to withdraw 1 ml samples from the receiver compartment via the sampling port; at each sampling time, an equal volume of drug-free receiver solution was immediately added back to the receiver compartment. Samples were analyzed by HPLC.
HPLC determination of peptide content in the receiver solution along with the known surface area of skin used (3.14 cm^2) allowed for calculation of transdermal flux (in units of μg/cm^2/hr) for each time point. Panels 1 and 2 of FIG. 2 show flux profiles obtained for the oleate salts of Compound A and Compound B in DMSO which far exceeded the flux profiles for the myristate, octanoate, decanoate, linoleate, nonanote, acetate and laurate salts of Compound A as well as the acetate salt of Compound B in DMSO. […]

[5] = Partition coefficients n-octanol/deionized water and n-octanol/PBS; type: physicochemical; details: 24 hours; for Log KOPBS / O/PBS Coefficient (KOPBS): n-octanol/PBS pH 7.4, 37° C.; for Log KOW / O/W Coefficient (KOW): n-octanol/deionized water, 37° C.
Protocol: The partition coefficients for all somatostatin-fatty acid salts in either n-octanol/deionized water or n-octanol/PBS (pH 7.4) were determined. The partition coefficient is the concentration of Compound A or Compound B in the n-octanol phase divided by the concentration in the aqueous or PBS phase.
An accurately weighed sample of each salt was placed into 4 ml HPLC vials sealed with caps containing pierceable silicone septa and dissolved in 2 ml n-octanol. Two ml of either deionized water or PBS were added to each sample; the vials were vortexed vigorously and incubated at 37° C. with agitation for 24 hours in a shaker-incubator at 400 rpm.
Following incubation, two samples were withdrawn from each vial. Once the layers had fully partitioned, a syringe was used to draw a sample of the aqueous phase or the n-octanol phase. Samples from each phase were diluted appropriately with deionized or methanol prior to HPLC analysis.

[6] = 4.3 mg/ml in DMSO +1% (v/v) oleic acid
[7] = donor DMSO, approx. 5 mg/ml free base peptide (4.9 mg/ml Compound A oleate, 5.2 mg/ml Compound A acetate)
[8] = donor DMSO, approx. 5 mg/ml free base peptide (4.9 mg/ml Compound A oleate, 5.2 mg/ml Compound A acetate), 48 hr
[9] = donor 55% EtOH 40% Water 5% Cineole, 5 mg/ml free base peptide
[10] = donor 55/45 (v/v) EtOH/H2O, approx. 5 mg/ml free base peptide
[11] = donor propylene glycol, approx. 5 mg/ml free base peptide

CC(C)[C@@H]1NC(=O)[C@H](CCCCN)NC(=O)[C@@H](Cc2c[nH]c3ccccc23)NC(=O)[C@H](Cc2ccc(O)cc2)NC(=O)[C@@H](NC(=O)[C@H](N)Cc2ccc3ccccc3c2)CSSC[C@@H](C(=O)N[C@H](C(N)=O)[C@@H](C)O)NC1=O [Compound A di-acetate, D-2-Nal-c(Cys-Tyr-D-Trp-Lys-Val-Cys)-Thr-NH2, reference compound]
Jmax [1, 6]: 53.576 μg/cm^2/hr
Jss [1, 6]: 1.873 μg/cm^2/hr
Lag Time [1, 6]: 0.0 h
Total Absorption [1, 6]: 387.78 μg/48 hr
effect of 1% (v/v) free oleic acid on flux ([1]; donor DMSO): increase of flux
Lag Time [1, 7]: 29.5 h
Total Absorption [1, 7]: 48.08 μg/48 hr
Jmax [1, 8]: 0.320 μg/cm^2/hr
Jss [1, 8]: 0.240 μg/cm^2/hr

CC(C)[C@@H]1NC(=O)[C@H](CCCCN)NC(=O)[C@@H](Cc2c[nH]c3ccccc23)NC(=O)[C@H](Cc2ccc(O)cc2)NC(=O)[C@@H](NC(=O)[C@H](N)Cc2ccc3ccccc3c2)CSSC[C@@H](C(=O)N[C@H](C(N)=O)[C@@H](C)O)NC1=O [Compound A di-oleate, D-2-Nal-c(Cys-Tyr-D-Trp-Lys-Val-Cys)-Thr-NH2]
Jmax ([1]; 8.9 mg/ml free base in DMSO): 24.942 μg/cm^2/hr
Jss ([1]; 8.9 mg/ml free base in DMSO): 3.342 μg/cm^2/hr
Lag Time ([1]; 8.9 mg/ml free base in DMSO): 0.5 h
Total Absorption ([1]; 8.9 mg/ml free base in DMSO): 522.82 μg/48 hr
increase in total peptide flux over 48 hours due to cineole ([1]; 55/40/5 ethanol/water/cineole vs 55/45 ethanol/water): 7.19%
Jmax [1, 9]: 14.100 μg/cm^2/hr
Jss [1, 9]: 6.359 μg/cm^2/hr
Lag Time [1, 9]: 2 h
Total Absorption [1, 9]: 825.35 μg/48 hr
Jmax [1, 10]: 11.343 μg/cm^2/hr
Jss [1, 10]: 5.871 μg/cm^2/hr
Lag Time [1, 10]: 2 h
Total Absorption [1, 10]: 770.02 μg/48 hr
Lag Time [1, 7]: 1.0 h and 1 h
Total Absorption [1, 7]: 448.52 μg/48 hr
Jmax [1, 8]: 19.887 μg/cm^2/hr
Jss [1, 8]: 2.858 μg/cm^2/hr
Jmax [1, 11]: 0.366 μg/cm^2/hr
Jss [1, 11]: 0.318 μg/cm^2/hr
Lag Time [1, 11]: 24 h
Total Absorption [1, 11]: 55.17 μg/48 hr
flux profile in DMSO compared with other salts ([1]; vs myristate, octanoate, decanoate, linoleate, nonanoate, acetate, laurate salts of Compound A and acetate of Compound B): far exceeded
Wt. % delivered ([2]; 4.9 mg free base in DMSO): 9.23%
Wt. % in lower skin layers ([2]; 4.9 mg free base in DMSO): 7.63%
Wt. % in upper skin layers ([2]; 4.9 mg free base in DMSO): 20.22%
Wt. % delivered ([2]; 8.9 mg free base in DMSO): 5.84%
Wt. % in lower skin layers ([2]; 8.9 mg free base in DMSO): 1.09%
Wt. % in upper skin layers ([2]; 8.9 mg free base in DMSO): 49.93%
solubility ([3]; deionized water, 37° C., read-out: Solubility DI H2O): 35 µg/mL
solubility ([3]; n-octanol, 37° C., read-out: Solubility n-Octanol): 123000 µg/mL
solubility ([3]; pH 7.4, PBS pH 7.4, 37° C., read-out: Solubility PBS): 40 µg/mL
Jmax [4]: 9.019 μg/cm^2/hr
Jss [4]: 1.407 μg/cm^2/hr
Lag Time [4]: 1 h
Total Absorption [4]: 231.09 μg/48 hr

D-2-Nal-c(Cys-Tyr-D-Trp-Lys-Val-Cys)-Thr-NH2 [Compound A di-decanoate]
Log KOPBS [5]: 0.844
O/PBS Coefficient (KOPBS) [5]: 6.99
Log KOW [5]: 2.325
O/W Coefficient (KOW) [5]: 211.53

D-2-Nal-c(Cys-Tyr-D-Trp-Lys-Val-Cys)-Thr-NH2 [Compound A di-laurate]
Log KOPBS [5]: 0.854
O/PBS Coefficient (KOPBS) [5]: 7.15
Log KOW [5]: 2.943
O/W Coefficient (KOW) [5]: 876.40

D-2-Nal-c(Cys-Tyr-D-Trp-Lys-Val-Cys)-Thr-NH2 [Compound A di-linoleate]
Log KOPBS [5]: 0.866
O/PBS Coefficient (KOPBS) [5]: 7.35
Log KOW [5]: 1.917
O/W Coefficient (KOW) [5]: 82.52

D-2-Nal-c(Cys-Tyr-D-Trp-Lys-Val-Cys)-Thr-NH2 [Compound A di-myristate]
Log KOPBS [5]: 0.806
O/PBS Coefficient (KOPBS) [5]: 6.40
Log KOW [5]: 2.610
O/W Coefficient (KOW) [5]: 407.50

D-2-Nal-c(Cys-Tyr-D-Trp-Lys-Val-Cys)-Thr-NH2 [Compound A di-nonanoate]
Log KOPBS [5]: 0.811
O/PBS Coefficient (KOPBS) [5]: 6.47
Log KOW [5]: 2.723
O/W Coefficient (KOW) [5]: 528.50

D-2-Nal-c(Cys-Tyr-D-Trp-Lys-Val-Cys)-Thr-NH2 [Compound A di-octanoate]
Log KOPBS [5]: 0.827
O/PBS Coefficient (KOPBS) [5]: 6.71
Log KOW [5]: 2.794
O/W Coefficient (KOW) [5]: 622.86

[4-(2-hydroxyethyl)]-1-piperazinylacetyl-D-Phe-c(Cys-Tyr-D-Trp-Lys-Abu-Cys)-Thr-NH2 [Compound B di-acetate]
Log KOPBS [5]: −2.000
O/PBS Coefficient (KOPBS) [5]: 0.01
Log KOW [5]: −2.000
O/W Coefficient (KOW) [5]: 0.01
